Data as given in ChEMBL document CHEMBL3396984, “Structure-activity relationship study of diphenylamine-based estrogen receptor (ER) antagonists” (Bioorg Med Chem, 2015).
pIC50: −log10 of the molar value. Active and inactive are the calls of the source. The calls are words filed in the database; no cut-off is given here.

Columns and labels:
MCF7 [1] = assay: Antiproliferative activity against human MCF7 cells after 5 days by WST-8 assay; type: functional, cell-based; conditions: for pIC50: Homo sapiens, MCF7, 120 h, read-out: IC50
MCF7 [2] = assay: Estrogenic activity in human MCF7 cells; type: functional, cell-based
MCF7 [3] = assay: Ratio of tamoxifen IC50 to compound IC50 for human MCF7 cells; type: functional

| SMILES | Activity (MCF7 [1]) | pIC50 (MCF7 [1]) | Activity (MCF7 [2]) | IC50 (MCF7 [1]; mcf7) | Ratio IC50 (MCF7 [3]) |
| --- | --- | --- | --- | --- | --- |
| CN(C)CCCOc1ccc(N(c2ccc(O)cc2)S(=O)(=O)c2ccccc2)cc1 | Dose-dependent effect | 5.66 | inactive |  |  |
| CCN(CC)CCOc1ccc(N(c2ccc(O)cc2)S(=O)(=O)c2ccccc2)cc1 | Dose-dependent effect | 5.89 | inactive |  |  |
| CN(C)CCOc1ccc(N(Cc2ccccc2)c2ccc(O)cc2)cc1 | Dose-dependent effect | 5.36 | inactive |  |  |
| O=S(=O)(c1ccccc1)N(c1ccc(O)cc1)c1ccc(OCCN2CCCC2)cc1 | Dose-dependent effect | 6.30 | inactive |  |  |
| CCCCCCN(c1ccc(O)cc1)c1ccc(OCCCN(C)C)cc1 | Dose-dependent effect |  | inactive | Not Active |  |
| Oc1ccc(N(Cc2ccccc2)c2ccc(OCCN3CCCC3)cc2)cc1 | Dose-dependent effect | 5.89 | inactive |  |  |
| CCCCCCN(c1ccc(O)cc1)c1ccc(OCCN(C)C)cc1 | Dose-dependent effect | 5.62 | inactive |  |  |
| O=S(=O)(c1ccccc1)N(c1ccc(O)cc1)c1ccc(OCCN2CCCCC2)cc1 | Dose-dependent effect | 6.49 | inactive |  |  |
| CCN(CC)CCOc1ccc(N(Cc2ccccc2)c2ccc(O)cc2)cc1 | Dose-dependent effect | 5.72 | inactive |  |  |
| CC/C(=C(\c1ccccc1)c1ccc(OCCN(C)C)cc1)c1ccccc1 [TAMOXIFEN] | Dose-dependent effect | 5.68 |  |  |  |
| Oc1ccc(N(Cc2ccccc2)c2ccc(OCCN3CCCCC3)cc2)cc1 | Dose-dependent effect | 6.10 | inactive |  |  |
| CCCCCCN(c1ccc(O)cc1)c1ccc(OCCN2CCCC2)cc1 | Dose-dependent effect | 5.57 | inactive |  |  |
| CCCCCCN(c1ccc(O)cc1)c1ccc(OCCN(CC)CC)cc1 | Dose-dependent effect | 5.85 | inactive |  |  |
| CN(C)CCCOc1ccc(N(Cc2ccccc2)c2ccc(O)cc2)cc1 | Dose-dependent effect | 5.55 | inactive |  |  |
| CCCCCCN(c1ccc(O)cc1)c1ccc(OCCN2CCCCCC2)cc1 | Dose-dependent effect | 5.85 | inactive |  |  |
| CCC(=C(c1ccc(O)cc1)c1ccc(OCCN(C)C)cc1)c1ccccc1 | Dose-dependent effect | 5.05 |  |  |  |
| CN(C)CCOc1ccc(N(c2ccc(O)cc2)S(=O)(=O)c2ccccc2)cc1 | Dose-dependent effect | 5.03 | inactive |  |  |
| Oc1ccc(N(Cc2ccccc2)c2ccc(OCCN3CCCCCC3)cc2)cc1 | Dose-dependent effect | 6.18 | inactive |  |  |
| CCCCCCN(c1ccc(O)cc1)c1ccc(OCCN2CCCCC2)cc1 | Dose-dependent effect | 6.89 | inactive |  | 10 |
